Source: PubChem BioAssay AID1918957 (Molecular Pharmacology Branch, DTP, NCI, 2023)

Tested on: NCI-H1876 complex spheroid viability
Assay: Anticancer human tumor NCI-H1876 cell line growth inhibition [LSD1];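 further: spheroids exposed to compounds for one week before readout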;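 on viability, T/C: 100% = DMSO vehicle-treated spheroids so lower means fewer viable cells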
Details: for IC50: curve of first compound; for viability, T/C: stronger effect = lower value
Excerpt: Multicellular complex tumor spheroid response to LSD1 Inhibitor Iadademstat in combination with a variety of drugs and investigational agents in selected tumor cell lines
The current study was undertaken to assess response to LSD1 inhibitors in combination with standard-of-care drugs and investigational agents in solid tumor complex spheroid models as well as in the K-562 leukemia. Complex spheroids include a stromal component modeled by human endothelial cells (HUVEC) and fibroblasts modeled by human mesenchymal stem cells (MSCs). The concentration ranges selected for each drug and investigational agent were based upon clinically achievable concentrations if the clinical Cmax of the agent was known.
Compounds. The drugs and investigational agents used in this study are listed on Table 1. All of the agents used, including staurosporine (NSC755774) and gemcitabine (NSC613327), were obtained from the Developmental Therapeutics Program, NCI. FDA-approved anticancer drugs are available from the NCI at http://dtp.nci.nih.gov/branches/dscb/oncology_drugset_explanation.html. Drugs and investigational agents were >95% pure by proton nuclear magnetic resonance (NMR) and liquid chromatography/mass spectrometry (LC/MS). Stock solutions were prepared at 400x in DMSO, stored at -70 degrees C, and diluted in fresh medium prior to their use. The final concentration of DMSO in cell culture wells never exceeded 0.25% (v/v). The FDA-approved anticancer drug set is available from the Developmental Therapeutics Program at https://dtp.cancer.gov/organization/dscb/obtaining/available_plates.htm. All drugs and investigational agents were tested over a range starting from a high concentration at or near the clinical Cmax and decreasing in half-log increments. If the clinical Cmax for an agent had not been determined, the highest concentration tested was 10 microM.
Cell Lines. The patient-derived cancer cell (PDC) lines: 292921-168-R-J2-PDC, K24384-001-R-PDC, and 521955-158-R2-J5-PDC pancreatic carcinomas, 556581-035-R-J1 ovarian carcinoma, 324938-238-R-J1-PDC, 855422-203-R-J1-PDC and 883617-216-R-J1-PDC urothelial bladder carcinomas, 743489-274-T-PDC renal cell carcinoma, 138582-R-J1 Merkel cell tumor, K60290-347-R-J1 and K57222-313-R-J1-PDC glioblastomas, 653999-131-R-J2-PDC, LG0703-F948-PDC, and 349418-098-R-PDC non-small cell lung carcinomas, 885512-296-R-J2-PDC, 171881-019-R-J1-PDC breast carcinomas and 186277-243-T-J2-PDC and 233499-124-R-J2-PDC colon carcinomas were obtained from the NCI Patient-Derived Models Repository (PDMR, https://pdmr.cancer.gov). The established cell lines NCI/ADR-RES (RRID:CVCL_14520 and OVCAR-5 (RRID:CVCL_1628) ovarian carcinomas, 786-O (RRID:CVCL_1051) and A498 (RRID:CVCL_A498) renal cell carcinoma, NCI-H211 (ATCC, cat. CRL-5824; RRID:CVCL_1529), NCI-H196 (ATCC, cat. CRL-5823, RRID:CVCL_1509), SW 1271 (ATCC, cat. CRL-2177, RRID:CVCL_1716) and NCI-H1876 (ATCC, cat. CRL-5902, RRID:CVCL_1503) small cell lung carcinomas, MDA-MB-231 (RRID:CVCL_0062) and MDA-MB-468 (RRID:CVCL_0419)breast carcinomas (10-12). Pooled donor human umbilical vein endothelial cells (HUVEC, Lonza, cat. CC-2519) and human mesenchymal stem cells (hMSC, Lonza, cat. PT-2501) were purchased from Lonza (Walkersville, MD).
Cell Culture. All cells were maintained in an incubator at 37 degrees C and 5% CO2 with 95% humidity. The PDC lines were cultured according to standard operating procedures established by the NCI PDMR (https://pdmr.cancer.gov). Briefly all PDCs were thawed and cultured in Matrigel-coated flasks prepared with a working solution of 1X Ham's F-12 nutrient mix, without supplementation (Invitrogen, Waltham, MA, cat. 11765054), 100 U/mL penicillin-streptomycin (Invitrogen, cat. 15140122), and 2.5% Matrigel (Corning Inc., Corning, NY, cat. 354248) for the first three passages. […]

COc1cc(C2c3cc4c(cc3C(OC3OC5COC(C)OC5C(O)C3O)C3COC(=O)C23)OCO4)cc(OC)c1O (stereo not given) + NC1CC1c1ccc(-c2cccc(O)c2)cc1
IC50 (second compound 0.1 µM): 36.6 nM | IC50 (second compound 0.316 µM): 34.6 nM | IC50 (second compound 1 µM): 35.2 nM | IC50 (second compound 3.16 µM): 40.4 nM | IC50 (second compound 10 µM): 35.3 nM | viability, T/C (second compound 0.1 µM, first compound 0.00949 µM): 87.6% | viability, T/C (second compound 0.1 µM, first compound 0.03 µM): 56.3% | viability, T/C (second compound 0.1 µM, first compound 0.0949 µM): 20.1% | viability, T/C (second compound 0.1 µM, first compound 0.3 µM): 11.4% | viability, T/C (second compound 0.1 µM, first compound 0.949 µM): 8.84% | viability, T/C (second compound 0.1 µM, first compound 3 µM): 10.2% | viability, T/C (second compound 0.316 µM, first compound 0.00949 µM): 84.4% | viability, T/C (second compound 0.316 µM, first compound 0.03 µM): 54.4% | viability, T/C (second compound 0.316 µM, first compound 0.0949 µM): 18.6% | viability, T/C (second compound 0.316 µM, first compound 0.3 µM): 10.9% | viability, T/C (second compound 0.316 µM, first compound 0.949 µM): 9.79% | viability, T/C (second compound 0.316 µM, first compound 3 µM): 8.38% | viability, T/C (second compound 1 µM, first compound 0.00949 µM): 92% | viability, T/C (second compound 1 µM, first compound 0.03 µM): 55.2% | viability, T/C (second compound 1 µM, first compound 0.0949 µM): 18% | viability, T/C (second compound 1 µM, first compound 0.3 µM): 11.6% | viability, T/C (second compound 1 µM, first compound 0.949 µM): 9.23% | viability, T/C (second compound 1 µM, first compound 3 µM): 8.55% | viability, T/C (second compound 3.16 µM, first compound 0.00949 µM): 93.9% | viability, T/C (second compound 3.16 µM, first compound 0.03 µM): 60.5% | viability, T/C (second compound 3.16 µM, first compound 0.0949 µM): 19.9% | viability, T/C (second compound 3.16 µM, first compound 0.3 µM): 13% | viability, T/C (second compound 3.16 µM, first compound 0.949 µM): 9% | viability, T/C (second compound 3.16 µM, first compound 3 µM): 8.78% | viability, T/C (second compound 10 µM, first compound 0.00949 µM): 85.3% | viability, T/C (second compound 10 µM, first compound 0.03 µM): 54.9% | viability, T/C (second compound 10 µM, first compound 0.0949 µM): 20.7% | viability, T/C (second compound 10 µM, first compound 0.3 µM): 13.8% | viability, T/C (second compound 10 µM, first compound 0.949 µM): 11% | viability, T/C (second compound 10 µM, first compound 3 µM): 9.82%
